Molecular target: T1, Monocarboxylate transporter 1 (Rattus norvegicus) (UniProt P53987)
T1 sequence (whole entry): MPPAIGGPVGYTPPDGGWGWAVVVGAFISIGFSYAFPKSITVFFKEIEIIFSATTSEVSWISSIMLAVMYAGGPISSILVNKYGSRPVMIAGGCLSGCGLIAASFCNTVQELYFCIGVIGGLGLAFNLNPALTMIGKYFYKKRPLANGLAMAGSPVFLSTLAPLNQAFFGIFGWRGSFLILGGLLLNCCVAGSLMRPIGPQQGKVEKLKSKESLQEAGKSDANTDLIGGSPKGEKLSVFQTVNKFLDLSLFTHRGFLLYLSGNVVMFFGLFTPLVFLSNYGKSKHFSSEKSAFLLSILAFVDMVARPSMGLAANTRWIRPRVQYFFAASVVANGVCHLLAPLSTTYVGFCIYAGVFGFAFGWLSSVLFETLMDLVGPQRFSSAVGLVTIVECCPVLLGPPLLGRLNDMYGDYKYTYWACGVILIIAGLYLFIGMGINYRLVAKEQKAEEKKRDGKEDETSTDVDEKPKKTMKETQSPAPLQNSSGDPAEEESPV
Assay: TP_TRANSPORTER: uptake in Xenopus laevis oocytes
Type: functional, cell-based
Conditions: Oocyte

Activity	Structure (SMILES)
substrate [+]	C[C@@H](O)C(=O)O
substrate [+]	C[C@H](O)C(=O)O

Reference: ChEMBL document CHEMBL2073919, “cDNA cloning and functional characterization of rat intestinal monocarboxylate transporter” (Biochem Biophys Res Commun, 1995)
